# Data published in US20070249639A1, “Use of 9H-Purine-2,6-Diamine Derivatives in the Treatment of Proliferative Diseases and Novel 9H-Purine-2,6-Diamine Derivatives” (priority 2004, published 2007).
# Key:
# Format in all cases: biochemical
# [1] = target: KIT (Homo sapiens, UniProt P10721); assay: Kinase panel inhibition; settings: @ 10 μM inhibitor; read-out: KIT kinase inh.
# Method: (§1) Percentage Inhibition of the Kinase at 10 μM Concentration of the Inhibitor
# (§2) Paul W. Manley, Pascal Furet, Guido Bold, Josef Brüggen, Jürgen Mestan, Thomas Meyer, Christian R. Schnell, and Jeanette Wood; Anthranilic Acid Amides: A Novel Class of Antiangiogenic VEGF Receptor Kinase Inhibitors J. Med. Chem. 2002, 45, 5687-5693. Wan, Yongqin; Hur, Wooyoung; Cho, Charles Y.; Liu, Yi; Adrian, Francisco J.; Lozach, Olivier; Bach, Stephane; Mayer, Thomas; Fabbro, Doriano; Meijer, Laurent; Gray, Nathanael S; Synthesis and Target Identification of Hymenialdisine Analogs Chemistry & Biology 2004, 11(2), 247-259.
# [2] = target: HER1 (Homo sapiens, UniProt P00533); assay: Kinase panel inhibition; settings: @ 10 μM inhibitor; read-out: HER1 kinase inh.
# Chain of HER1 (P00533 25-1210, species assumed): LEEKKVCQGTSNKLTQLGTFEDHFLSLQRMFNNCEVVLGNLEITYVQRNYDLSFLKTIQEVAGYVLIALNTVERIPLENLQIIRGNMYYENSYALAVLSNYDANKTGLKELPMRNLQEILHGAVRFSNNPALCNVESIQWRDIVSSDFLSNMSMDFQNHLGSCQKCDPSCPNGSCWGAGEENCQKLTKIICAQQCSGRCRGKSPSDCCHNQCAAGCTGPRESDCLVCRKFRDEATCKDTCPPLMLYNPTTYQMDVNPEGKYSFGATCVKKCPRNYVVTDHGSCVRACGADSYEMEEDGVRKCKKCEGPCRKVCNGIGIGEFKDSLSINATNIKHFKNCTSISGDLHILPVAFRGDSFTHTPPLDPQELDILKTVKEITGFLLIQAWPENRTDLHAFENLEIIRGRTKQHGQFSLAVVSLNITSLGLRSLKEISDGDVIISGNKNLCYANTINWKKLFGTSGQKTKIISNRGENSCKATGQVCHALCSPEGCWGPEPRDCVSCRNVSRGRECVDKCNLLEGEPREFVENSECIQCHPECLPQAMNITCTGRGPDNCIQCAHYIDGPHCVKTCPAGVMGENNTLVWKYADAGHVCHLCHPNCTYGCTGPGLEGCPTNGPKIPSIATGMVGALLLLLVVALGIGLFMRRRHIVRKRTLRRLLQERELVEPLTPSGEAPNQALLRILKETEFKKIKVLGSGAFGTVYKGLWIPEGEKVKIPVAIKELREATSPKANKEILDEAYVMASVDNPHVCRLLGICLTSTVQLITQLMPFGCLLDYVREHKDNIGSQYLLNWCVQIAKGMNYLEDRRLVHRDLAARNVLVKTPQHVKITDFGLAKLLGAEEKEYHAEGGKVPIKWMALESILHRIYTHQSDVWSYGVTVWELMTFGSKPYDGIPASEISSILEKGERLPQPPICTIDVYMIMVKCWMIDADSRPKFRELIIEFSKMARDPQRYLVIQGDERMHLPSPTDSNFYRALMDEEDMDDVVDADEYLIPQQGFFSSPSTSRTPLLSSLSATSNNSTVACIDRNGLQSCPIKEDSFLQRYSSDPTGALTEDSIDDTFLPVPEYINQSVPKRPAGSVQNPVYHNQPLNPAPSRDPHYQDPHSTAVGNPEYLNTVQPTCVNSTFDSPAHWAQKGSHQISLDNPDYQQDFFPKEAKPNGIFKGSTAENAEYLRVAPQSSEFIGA
# Method: as §1, §2
# [3] = target: KDR (Homo sapiens, UniProt P35968); assay: Kinase panel inhibition; settings: @ 10 μM inhibitor; read-out: KDR kinase inh.
# Method: as §1, §2
# [4] = target: IGF (Homo sapiens, UniProt P08069); assay: Kinase panel inhibition; settings: @ 10 μM inhibitor; read-out: IGF kinase inh.
# Chain of IGF (P08069 31-1367): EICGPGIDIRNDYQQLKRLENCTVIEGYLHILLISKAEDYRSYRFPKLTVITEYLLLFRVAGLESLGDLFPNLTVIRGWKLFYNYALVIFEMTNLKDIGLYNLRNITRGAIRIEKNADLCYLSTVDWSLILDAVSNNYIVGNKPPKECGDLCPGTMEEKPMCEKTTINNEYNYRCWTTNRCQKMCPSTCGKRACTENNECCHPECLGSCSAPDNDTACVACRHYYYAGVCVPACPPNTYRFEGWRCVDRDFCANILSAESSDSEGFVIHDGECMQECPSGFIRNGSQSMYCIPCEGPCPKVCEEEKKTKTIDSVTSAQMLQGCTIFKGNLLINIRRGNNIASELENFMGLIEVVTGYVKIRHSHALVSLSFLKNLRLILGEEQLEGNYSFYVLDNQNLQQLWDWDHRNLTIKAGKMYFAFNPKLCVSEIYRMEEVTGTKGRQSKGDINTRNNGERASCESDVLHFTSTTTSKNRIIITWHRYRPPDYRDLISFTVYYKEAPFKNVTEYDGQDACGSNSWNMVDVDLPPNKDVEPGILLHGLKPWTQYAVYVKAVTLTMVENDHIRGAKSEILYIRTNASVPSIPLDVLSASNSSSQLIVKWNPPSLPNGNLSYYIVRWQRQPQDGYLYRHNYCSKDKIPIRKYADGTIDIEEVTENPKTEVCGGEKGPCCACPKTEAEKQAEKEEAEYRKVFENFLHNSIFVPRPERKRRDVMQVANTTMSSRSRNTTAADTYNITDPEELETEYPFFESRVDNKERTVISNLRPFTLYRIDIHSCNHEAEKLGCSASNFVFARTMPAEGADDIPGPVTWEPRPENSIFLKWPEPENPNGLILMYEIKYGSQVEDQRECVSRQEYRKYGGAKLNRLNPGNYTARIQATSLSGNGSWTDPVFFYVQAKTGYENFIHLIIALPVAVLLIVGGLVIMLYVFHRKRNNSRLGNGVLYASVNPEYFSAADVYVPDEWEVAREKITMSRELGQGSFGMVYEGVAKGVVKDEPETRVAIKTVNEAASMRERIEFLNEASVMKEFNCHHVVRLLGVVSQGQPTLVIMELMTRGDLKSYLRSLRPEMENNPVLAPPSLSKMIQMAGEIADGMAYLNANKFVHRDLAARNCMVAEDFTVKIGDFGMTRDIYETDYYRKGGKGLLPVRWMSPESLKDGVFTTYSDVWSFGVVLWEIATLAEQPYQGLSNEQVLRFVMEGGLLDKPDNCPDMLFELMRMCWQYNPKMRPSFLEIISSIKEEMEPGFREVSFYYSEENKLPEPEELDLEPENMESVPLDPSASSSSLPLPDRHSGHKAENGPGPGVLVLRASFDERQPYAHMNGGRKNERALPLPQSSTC
# Method: as §1, §2
# [5] = target: Flt-4 (Homo sapiens, UniProt P35916); assay: Kinase panel inhibition; settings: @ 10 μM inhibitor; read-out: Flt-4 kinase inh.
# Method: as §1, §2
# [6] = target: Flt-1 (Homo sapiens, UniProt P17948); assay: Kinase panel inhibition; settings: @ 10 μM inhibitor; read-out: Flt-1 kinase inh.
# Method: as §1, §2
# [7] = target: ABL (Homo sapiens, UniProt P00519); assay: Kinase panel inhibition; settings: @ 10 μM inhibitor; read-out: ABL kinase inh.
# Chain of ABL (P00519 whole entry, species assumed): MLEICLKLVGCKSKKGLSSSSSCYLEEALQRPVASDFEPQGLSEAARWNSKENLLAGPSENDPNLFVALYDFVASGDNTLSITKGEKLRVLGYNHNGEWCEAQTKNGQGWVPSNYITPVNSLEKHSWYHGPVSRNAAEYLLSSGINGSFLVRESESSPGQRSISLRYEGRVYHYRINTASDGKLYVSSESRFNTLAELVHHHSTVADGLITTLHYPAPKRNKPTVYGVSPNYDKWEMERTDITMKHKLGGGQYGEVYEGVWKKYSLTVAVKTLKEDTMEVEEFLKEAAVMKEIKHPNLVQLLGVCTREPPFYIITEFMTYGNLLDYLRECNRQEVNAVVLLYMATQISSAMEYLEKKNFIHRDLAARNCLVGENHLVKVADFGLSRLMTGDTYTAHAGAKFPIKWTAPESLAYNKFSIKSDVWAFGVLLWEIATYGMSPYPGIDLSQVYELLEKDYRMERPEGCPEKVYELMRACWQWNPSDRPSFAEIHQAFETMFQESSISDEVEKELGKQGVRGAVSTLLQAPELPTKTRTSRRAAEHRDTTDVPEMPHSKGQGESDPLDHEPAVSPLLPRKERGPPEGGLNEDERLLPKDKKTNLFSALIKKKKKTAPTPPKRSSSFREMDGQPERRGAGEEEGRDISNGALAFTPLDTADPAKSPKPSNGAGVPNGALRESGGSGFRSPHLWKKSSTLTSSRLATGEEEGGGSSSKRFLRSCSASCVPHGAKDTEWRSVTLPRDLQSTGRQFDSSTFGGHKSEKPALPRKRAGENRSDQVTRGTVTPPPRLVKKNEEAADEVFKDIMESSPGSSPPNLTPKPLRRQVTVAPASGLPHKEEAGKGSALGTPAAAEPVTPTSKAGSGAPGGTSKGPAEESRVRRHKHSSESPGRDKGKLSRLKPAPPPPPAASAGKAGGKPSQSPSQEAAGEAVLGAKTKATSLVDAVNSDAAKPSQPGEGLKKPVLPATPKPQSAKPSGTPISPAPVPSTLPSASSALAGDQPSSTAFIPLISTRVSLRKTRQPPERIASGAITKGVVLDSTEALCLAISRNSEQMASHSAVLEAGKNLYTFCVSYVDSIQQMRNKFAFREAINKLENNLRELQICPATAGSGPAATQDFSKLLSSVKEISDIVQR
# Method: as §1, §2
# [8] = target: Tek (Homo sapiens, UniProt Q02763); assay: Kinase panel inhibition; settings: @ 10 μM inhibitor; read-out: Tek kinase inh.
# Method: as §1, §2
# [9] = target: Raf-1 (Homo sapiens, UniProt P04049); assay: Kinase panel inhibition; settings: @ 10 μM inhibitor; read-out: Raf-1 kinase inh.
# Chain of Raf-1 (P04049 whole entry, species assumed): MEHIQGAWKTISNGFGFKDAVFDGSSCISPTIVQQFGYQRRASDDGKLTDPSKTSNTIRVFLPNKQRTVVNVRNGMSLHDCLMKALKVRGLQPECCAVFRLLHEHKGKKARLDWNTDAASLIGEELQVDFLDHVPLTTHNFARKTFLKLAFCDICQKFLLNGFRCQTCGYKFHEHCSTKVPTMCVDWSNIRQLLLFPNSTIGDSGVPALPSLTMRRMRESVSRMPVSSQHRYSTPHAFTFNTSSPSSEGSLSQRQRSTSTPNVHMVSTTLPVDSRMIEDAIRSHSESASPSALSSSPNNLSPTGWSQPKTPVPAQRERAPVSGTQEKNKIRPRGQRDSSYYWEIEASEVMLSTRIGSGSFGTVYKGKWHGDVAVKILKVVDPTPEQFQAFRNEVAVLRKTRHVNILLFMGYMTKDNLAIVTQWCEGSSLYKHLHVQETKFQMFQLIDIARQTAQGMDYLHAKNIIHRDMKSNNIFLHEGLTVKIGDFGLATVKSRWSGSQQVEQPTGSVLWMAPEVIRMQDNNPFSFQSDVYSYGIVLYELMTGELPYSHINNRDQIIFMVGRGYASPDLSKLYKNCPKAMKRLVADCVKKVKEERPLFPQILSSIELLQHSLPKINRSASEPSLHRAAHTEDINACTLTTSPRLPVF
# Method: as §1, §2
# [10] = target: HER2 (Homo sapiens, UniProt P04626); assay: Kinase panel inhibition; settings: @ 10 μM inhibitor; read-out: HER2 kinase inh.
# Method: as §1, §2
# [11] = target: PKB (Homo sapiens, UniProt P31749); assay: Kinase panel inhibition; settings: @ 10 μM inhibitor; read-out: PKB kinase inh.
# Chain of PKB (P31749 whole entry, species assumed): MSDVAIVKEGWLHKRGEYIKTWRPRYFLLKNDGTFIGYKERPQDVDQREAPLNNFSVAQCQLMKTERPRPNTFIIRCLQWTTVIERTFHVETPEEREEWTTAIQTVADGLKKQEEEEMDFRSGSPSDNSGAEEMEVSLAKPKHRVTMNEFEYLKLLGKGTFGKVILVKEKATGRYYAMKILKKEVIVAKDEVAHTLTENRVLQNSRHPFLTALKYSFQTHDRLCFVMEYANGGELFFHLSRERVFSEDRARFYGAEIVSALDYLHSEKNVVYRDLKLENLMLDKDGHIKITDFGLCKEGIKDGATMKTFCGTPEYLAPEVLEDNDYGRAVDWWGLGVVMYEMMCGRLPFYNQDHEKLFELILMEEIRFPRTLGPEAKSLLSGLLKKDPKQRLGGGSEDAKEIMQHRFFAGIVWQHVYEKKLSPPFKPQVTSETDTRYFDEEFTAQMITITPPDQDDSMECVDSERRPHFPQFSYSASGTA
# Method: as §1, §2
# [12] = target: MET (Homo sapiens, UniProt P08581); assay: Kinase panel inhibition; settings: @ 10 μM inhibitor; read-out: MET kinase inh.
# Method: as §1, §2
# [13] = target: T1, PDK1 (Homo sapiens, UniProt O15530); assay: Kinase panel inhibition; settings: @ 10 μM inhibitor; read-out: PDK1 kinase inh.
# T1 sequence (O15530 1-556): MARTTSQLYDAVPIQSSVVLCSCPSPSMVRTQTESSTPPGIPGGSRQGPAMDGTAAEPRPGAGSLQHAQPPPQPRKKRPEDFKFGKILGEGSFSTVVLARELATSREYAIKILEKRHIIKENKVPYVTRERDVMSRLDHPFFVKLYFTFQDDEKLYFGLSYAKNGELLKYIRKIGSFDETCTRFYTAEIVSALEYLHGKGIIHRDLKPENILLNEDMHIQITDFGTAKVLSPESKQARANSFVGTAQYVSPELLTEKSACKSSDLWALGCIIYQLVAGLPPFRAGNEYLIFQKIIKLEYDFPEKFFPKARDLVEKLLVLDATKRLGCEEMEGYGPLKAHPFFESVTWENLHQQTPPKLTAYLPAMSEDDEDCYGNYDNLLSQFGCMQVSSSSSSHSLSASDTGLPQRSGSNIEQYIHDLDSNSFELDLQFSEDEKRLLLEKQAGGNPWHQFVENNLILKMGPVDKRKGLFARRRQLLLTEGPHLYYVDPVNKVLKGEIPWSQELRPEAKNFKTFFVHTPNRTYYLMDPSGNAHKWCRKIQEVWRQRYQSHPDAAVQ
# Method: as §1, §2
# [14] = test system: FGFR; assay: Kinase panel inhibition; settings: @ 10 μM inhibitor
# Method: as §1, §2
# [15] = target: T2, human topoisomerase II α (Homo sapiens, UniProt P11388); assay: Topoisomerase II ATPase assay (Malachite Green); settings: for inhibition at 10 µM: Percent inhibition @10 μM, Malachite Green assay, read-out: TOPO II inh. (inhibition of the TOPO ATPase activity)
# T2 construct: purchased Professor Neil Osheroff (Vanderbilt University, Nashville, Tenn., USA)
# Procedure, shortened: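 Purified human topo IIα was pre-incubated with pUC18 DNA for 10 min at 37 °C in pH 7.9 Tris buffer with 175 mM KCl and 5 mM MgCl2. ATP was then added and the reaction ran for 30 min at 37 °C. Released phosphate was read by malachite green at 630 nm; % inhibition at 10 μM and IC50 came from concentration-inhibition curves.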
# [16] = test system: PKA; assay: Kinase panel inhibition; settings: @ 10 μM inhibitor
# Method: as §1, §2
inhibition at 10 µM [1],inhibition at 10 µM [2],inhibition at 10 µM [3],inhibition at 10 µM [4],inhibition at 10 µM [5],inhibition at 10 µM [6],inhibition at 10 µM [7],inhibition at 10 µM [8],inhibition at 10 µM [9],inhibition at 10 µM [10],inhibition at 10 µM [11],inhibition at 10 µM [12],inhibition at 10 µM [13],FGFR kinase inh. [14],IC50 [15],inhibition at 10 µM [15],PKA kinase inh. [16],Structure (SMILES)
≥ 80%,65 to 80%,≥ 80%,≥ 80%,≥ 80%,65 to 80%,≥ 80%,≥ 80%,65 to 80%,65 to 80%,50 to 65%,≥ 80%,≥ 80%,++ (<80% ≧ 65%),,,,"CC(C)(C)Nc1nc(Nc2ccc3ncsc3c2)nc2[nH]cnc12 [Example 14, N*2*-Benzothiazol-6-yl-N*6*-tert-butyl-9H-purine-2,6-diamine]"
< 50%,< 50%,50 to 65%,< 50%,< 50%,< 50%,65 to 80%,< 50%,< 50%,< 50%,< 50%,< 50%,< 50%,,2100 nM,65 to 80%,+ (<65% ≧ 50%),"Cc1nc2c(NC(C)(C)C)nc(Nc3ccc4ncsc4c3)nc2[nH]1 [Example 25, N*2*-Benzothiazol-6-yl-N*6*-tert-butyl-8-methyl-9H-purine-2,6-diamine]"
< 50%,< 50%,50 to 65%,< 50%,< 50%,< 50%,50 to 65%,65 to 80%,< 50%,< 50%,< 50%,< 50%,< 50%,,600 nM,≥ 80%,,"CCc1nc2c(NC(C)(C)C)nc(Nc3ccc4ncsc4c3)nc2[nH]1 [Example 27, N*2*-Benzothiazol-6-yl-N*6*-tert-butyl-8-ethyl-9H-purine-2,6-diamine]"
